Reference: patent US20260234188A1, “CHEMOKINE-BINDING PEPTIDES” (Oxford University Innovation Limited, priority 2022, published 2026)
“Also recorded” adds a separate entry of the source.

Columns and labels:
[1] = system: panel of up to 42 human chemokines; assay: Phage-display next generation sequencing screen of overlapping hexadecapeptide libraries, chemokines displayed on streptavidin beads; assay type: binding; settings: log2E greater than 5, chemokines named by first part of UniProt Entry Name, peptides binding complement C5a (control) excluded;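 also: chemokine listed when log2 fold enrichment exceeds 5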
Procedure, shortened: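 Phage-display libraries of 55662 overlapping hexadecapeptides from tick and viral chemokine-binding proteins, human chemokines and chemokine receptors screened against up to 42 human chemokines, with hits found by next-generation sequencing. Peptides mapped to parent-protein position with log2 fold enrichment; regions of interest where cumulative residue log2 E exceeds the 95% upper CI of the protein median.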

CCL8 = biological target: T1, CCL8 (Homo sapiens, UniProt P80075); assay: cell-based; settings: peptide 10 μM, chemokine at EC80, versus scrambled control HD2SCR
T1 construct: purchased Peprotech
T1 sequence (P80075 24-99): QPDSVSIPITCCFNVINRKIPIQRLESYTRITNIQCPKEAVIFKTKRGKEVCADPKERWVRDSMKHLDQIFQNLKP
Description: (§1) FIG. 2. […] BK1.2 is described in (Darlot, 2020). […] Chemokines used are indicated by the name, followed in parenthesis by the supplier code (P in supplier code indicates Peprotech). […] All experiments were performed at EC80 doses of indicated chemokine. Data are shown as box-whisker plots of three technical and three biological replicates. Statistically significant differences (compared to control, indicated by #), using Dunnett's test with correction for multiple comparisons, are indicated by asterisks: ****=P≤0.0001, ***=P≤0.001, **=P≤0.01, *=P≤0.05.
FIG. 3. […] Chemokines used are indicated by the name, followed in parenthesis by the supplier code (P in supplier code indicates Peprotech). […] All experiments were performed at EC80 doses of indicated chemokine.
(§2) Briefly, cell migration assays use THP1 cells (human monocyte) and primary human buffy coat white cells (consisting of neutrophil granulocytes, monocytes, and lymphocytes), and activated T-cells. THP1 cells and primary monocytes respond to CCL2, CCL3, CCL5, CCL8 and CXCL4, granulocytes to CXCL1 and CXCL8, activated T-cells to CXCL9/10/11. Assays are performed in 96-well Boyden chambers, and migrated cells counted and characterized using and ATTUNE Flow Cytometer as described. Triplicate assays are performed at the EC80 dose of each chemokine at 10 μM peptide concentration.
The J:CXCR1 cell line was generated by transfecting Jurkat cells by electroporation with PvuI-linearized plasmid D1398 and selecting with blasticidin (Sigma-Aldrich, Cat #203350, […]). […] J:CXCR1 cells were cultured in RPMI-1640 media (Gibco), supplemented with 10% FBS and 5 mM L-Glutamine with blasticidin. For J:CXCR1 migration assays, 300,000 cells/well were added to the top chamber of a 3 μm Transwell insert (Corning) in 50 μL of migration media (RPMI-1640, 0.5% FBS, 4 mM L-Glutamine, 0.05% DMSO). The bottom chamber contained 150 μL of chemokine, with or without peptide. Cells were migrated at 37° C. in 5% CO2 for 4 hours. […]

[2] = system: panel of 24 biotinylated chemokines; assay: Phage-display screen of HD2 NNK saturation mutagenesis library; assay type: binding, human; settings: for Chemokines Bound log2E 1-5 / Chemokines Bound log2E > 5: HD2 saturation mutants, chemokines on streptavidin beads, UniProt entry names
Excerpt: FIG. 7. Exemplar results from phage display screens using saturation mutagenesis. A phage-display library was constructed using the HD2 sequence, replacing each residue encoding codon with the degenerate sequence NNK. The 16 degenerate sequences (which also encoded the parental HD2 sequence) were pooled and cloned into display phage. […] Exemplar peptides were selected such that log 2 E for at least one chemokine was greater than 5, and log 2 E for binding to control (CO5, was less than zero). […] The fold enrichment of parental HD2 is also indicated.
A phage-display library was constructed using the HD2 sequence, replacing each residue encoding codon with the degenerate sequence NNK. The 16 degenerate sequences (which also encoded the parental HD2 sequence) were pooled and cloned into display phage. […] Exemplar peptides were selected such that log 2 E for at least one chemokine was greater than 5, and log 2 E for binding to control (CO5, was less than zero). […] The fold enrichment of parental HD2 is also indicated.
A molecular level understanding of binding mechanism is needed for development of peptides as therapeutics and is usually obtained from structural analyses. As HD2 binds many chemokines this becomes a challenging task, and we explored if we could elucidate this using phage display mutagenesis. The role of each residue in HD2 for binding was examined in phage-display. A library of HD2 mutations that had NNK substituted at each residue and performed phage-display selection against a panel of 24 biotinylated chemokines, in parallel, as described in Example 7. This strategy allowed us to evaluate the impact not only of Ala substitutions, but also conservative, hydrophilic and hydrophobic substitutions, and compare with binding of parental HD2 which is also included in the library. Ala substitution removes side-chains beyond the β-carbon and can be used to infer the role of side-chain functional groups without affecting conformational flexibility of the backbone. […] These residues are within the two motifs identified previously. Other notable residues identified were Y8 and P10. We next judged the impact of Ala mutation by calculating the change in log 2 E (Δlog 2 E) between the mutant and parental HD2. A positive value of Δlog 2 E indicates increased binding, and a negative value decreased binding compared to parental HD2. […] As may be seen, the log 2 E for the parental HD2 was ~0 in these analyses indicating lack of enrichment.
Oligonucleotide pools were amplified using primers: oligo_fwd: 5′-[…] and oligo_rev2: 5′-tcgtcaccctcggcgcctcctcoggatcctccacc. Oligonucleotide PCR products were cloned into plasmid prSTOP4Nsi using NEB Builder HiFi Assembly following instructions of the manufacturer. The vector pool was used to transform electrocompetent Invitrogen ElectroMAX™ DH5α-E™ cells. Plasmid DNA was harvested by MaxiPrep (GeneJet Plasmid Maxiprep Kit) and was transformed into SS320 phage display electrocompetent cells (Lucigen), following the manufacturer's protocol, resuspended in 950 μL recovery media for each electroporation, transferred to 50 mL Falcon tubes, 100 μL 1011 CFU/mL M13KO7 helper phage (NEB) added and shaken at 37° C., 220 RPM for 1 h. 1 mL recovery culture was added to 2YT medium containing +50 ug/mL carbenicillin and 25 ug/mL kanamycin, and grown overnight at 37C, 220 rpm. Phage was precipitated from the culture supernatant by adding 22.5 mL of supernatant to 4.5 mL 20% PEG 8000/2.5 M NaCl, incubating on ice for 30 min, and centrifuging at 10,000 RPM, 4° C. for 10 min, and resuspending phage in 1 ml of PBT, followed by centrifugation at 13000 RPM, 4° C., for 10 min. […]

CC and CXC chemokines = assay: Chemokine-induced cell migration assays, pooled over chemokines (meta-analysis); assay type: cell-based, human; settings: single HD2 mutations; nine CC and six CXC chemokines
Description: FIG. 16. Effect of HD2 alanine mutations on chemotaxis. […] All experiments were performed as three technical and three biological replicates, and individual data points are indicated, and coloured by the chemokine used. Statistically significant differences (compared to control, coloured blue), using Dunnett's test with correction for multiple comparisons, are indicated by asterisks: ****=P≤0.0001, ***=P≤0.001, **=P≤0.01, *=P≤[…] observations per group (three technical and three biological replicates for each chemokine). FIG. 16B, Faceted plots of change in median normalised cell count between alanine mutant and wild-type HD2 peptide obtained in cell migration assays (Y-axis, Δmedian normalised cell count) versus alanine mutated residue (X-axis). Chemokines used for each experiment are indicated in the strip to the right of each plot. Statistically significant differences compared to parental HD2 are shown as red dots. […] Scatterplot of Δmedian normalised cell count (Y-axis, obtained in cell migration assays) versus Δlog 2 E (obtained in phage-display experiments) for peptide:chemokine pairs. Individual data points indicate peptide chemokine pairs for which both cell migration and Δlog 2 E were available. Linear regression plot with 95% confidence interval, Spearman correlation coefficient (R) and statistical significance (p) are shown.
FIG. 19. […] All experiments were performed as at least three technical and three biological replicates, and individual data points are indicated, and coloured by the chemokine used, for all chemokines studied (n=16 chemokines). Statistically significant differences (compared to control, coloured blue), using Dunnett's test with correction for multiple comparisons, are indicated by asterisks: ****=P≤0.0001, ***=P≤0.001, **=P≤0.01, *=P≤0.05.
as §2
The J:CXCR1 cell line was generated by transfecting Jurkat cells by electroporation with PvuI-linearized plasmid D1398 and selecting with blasticidin (Sigma-Aldrich, Cat #203350, […]). […] J:CXCR1 cells were cultured in RPMI-1640 media (Gibco), supplemented with 10% FBS and 5 mM L-Glutamine with blasticidin. For J:CXCR1 migration assays, 300,000 cells/well were added to the top chamber of a 3 μm Transwell insert (Corning) in 50 μL of migration media (RPMI-1640, 0.5% FBS, 4 mM L-Glutamine, 0.05% DMSO). The bottom chamber contained 150 μL of chemokine, with or without peptide. Cells were migrated at 37° C. in 5% CO2 for 4 hours. The plate was incubated on a shaking platform for 10 minutes, 800 rpm, at 37° C., and 150 μL from the bottom of the plate transferred into a U-bottom plate containing 50 μL of migration media.

CXCL9 = biological target: T2, CXCL9 (Homo sapiens, UniProt Q07325); assay: CXCL9-induced activated T-cell migration, transwell assay; assay type: cell-based; settings: HD2 mutant peptides 10 μM, chemokine at EC80
T2 construct: purchased Peprotech
T2 sequence (Q07325 23-125): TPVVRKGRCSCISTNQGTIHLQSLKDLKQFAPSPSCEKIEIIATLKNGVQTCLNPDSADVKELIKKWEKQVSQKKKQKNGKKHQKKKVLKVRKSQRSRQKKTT
Description: as §1, §2
(§3) The J:CXCR1 cell line was generated by transfecting Jurkat cells by electroporation with PvuI-linearized plasmid D1398 and selecting with blasticidin (Sigma-Aldrich, Cat #203350, […]). […] J:CXCR1 cells were cultured in RPMI-1640 media (Gibco), supplemented with 10% FBS and 5 mM L-Glutamine with blasticidin. For J:CXCR1 migration assays, 300,000 cells/well were added to the top chamber of a 3 μm Transwell insert (Corning) in 50 μL of migration media (RPMI-1640, 0.5% FBS, 4 mM L-Glutamine, 0.05% DMSO). The bottom chamber contained 150 μL of chemokine, with or without peptide. Cells were migrated at 37° C. in 5% CO2 for 4 hours. The plate was incubated on a shaking platform for 10 minutes, 800 rpm, at 37° C., and 150 μL from the bottom of the plate transferred into a U-bottom plate containing 50 μL of migration media. Cell counts were determined by Attune NxT Flow Cytometer Plate Reader (ThermoFisher), based on cell size parameters FSC-H/SSC-H. Experiments were performed in 3 technical and 3 biological replicates. THP-1 migration assays were carried out using methods known in the art. Activated T-cell assays were carried out using methods known in the art, with the following modifications in the isolation process. Peripheral blood cells were obtained from leucocyte cones (NHS Blood Transfusion Services), following which, T-cells were isolated using two rounds of human CD8+ T-cell isolation kit (480011, BioLegend). At day 10 after activation, T-cells were frozen at 20 E6 cells/ml in TexMACS medium supplemented with 10% DMSO (D2650, Sigma) in liquid nitrogen. Prior to use, activated T-cells were recovered for 24 hours in TexMACs medium at 0.3 E6 cells/ml and incubated at 37° C. in 5% CO2. Chemokine sources are described in Supplementary information Table 3. Statistical significances between control experimental groups was evaluated using Dunnett's test. IC50 experiments were performed at the EC80 dose of chemokine. EC80 was calculated by fitting a chemokine dose-response curve with 3 parameters (fixing the top to 100%). IC50 was calculated by fitting an inhibitor response curve with 4 parameters.

CCL21 = biological target: T3, CCL21 (Homo sapiens, UniProt O00585); assay: CCL21-induced cell migration assay; assay type: cell-based; settings: HD2 mutant peptides 10 μM, chemokine at EC80
T3 sequence (O00585 24-134): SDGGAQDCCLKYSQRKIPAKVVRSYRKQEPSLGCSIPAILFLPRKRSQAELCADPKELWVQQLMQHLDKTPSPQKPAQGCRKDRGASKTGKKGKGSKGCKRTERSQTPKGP
Description: FIGS. 24 and 25. Effect of exemplar mutant HD2 peptides on chemotaxis. Box-whisker plots showing the effect of the exemplar mutant HD2 peptides on cell migration induced by indicated human chemokines. All experiments were performed as at least three technical and between one to three biological replicates, and individual data points are indicated. […] Chemokine and cell type names are indicated. HD2SCR is a scrambled version of HD2 used as negative control. All peptides were at 10 μM final concentration and chemokines at EC80 doses. Statistically significant differences (compared to control, coloured blue), using Dunnett's test with correction for multiple comparisons, are indicated by asterisks: ****=P≤0.0001, ***=P≤0.001, **=P≤0.01, *=P≤0.05.
as §3
Migration assays using THP1, activated T-cell (ATC) and J:CXCR1 (Jurkat cells stably transfected with CXCR1 receptor) were performed as described previously. IC50 experiments were performed at the EC80 dose of chemokine. EC80 was calculated by fitting a chemokine dose-response curve with 3 parameters (fixing the top to 100%). IC50 was calculated by fitting an inhibitor response curve with 4 parameters. R-packages used were ggupset_0.3.0, DescTools_0.99.44, and drc_3.0-1.

Sequence | Chemokines Bound [1] | inhibition of cell migration (CCL8) | Chemokines Bound log2E 1-5 [2] | Chemokines Bound log2E > 5 [2] | mean log 2 E compared to parental HD2 ([2]; over CC chemokines) | mean log 2 E compared to parental HD2 ([2]; over all chemokines) | chemotaxis inhibition compared with HD2, meta-analysis (CC and CXC chemokines) | chemotaxis compared with the parental HD2 peptide (CXCL9) | chemotaxis compared with the parental HD2 peptide (CCL21)
DEDYEDFFKPVTCYFA [HD540] | CCL18, CCL22,; also recorded: CCL5, CCL8 | inhibition |  |  |  |  |  |  | 
EDEDYEDFFKPVTCYF [HD845] | CCL18, CCL22,; also recorded: CCL5, CCL8 | inhibition |  |  |  |  |  |  | 
EEDDYDAYAPLTCYFT [HD2_D6] |  |  | CCL15, CCL17, CCL18, CCL19,; also recorded: CCL22, CCL28, CCL3, CCL4,; also recorded: CCL5, CCL8, X3CL1, CXL10,; also recorded: CXL11, CXL14, IL8 | CCL1, CCL11,; also recorded: CCL2, SDF1,; also recorded: CXL13 | significant improvement | significant improvement | did not improve chemotaxis in any assay |  | 
EEDDYTAYAPITCYFT [HD2_I11] |  |  | CCL1, CCL11, CCL17, CCL18,; also recorded: CCL19, CCL2, CCL22, CCL28,; also recorded: CCL3, CCL4, CCL5, CCL8, X3CL1,; also recorded: CXL10, CXL11, SDF1, CXL13, IL8 | CCL15 | significant improvement | significant improvement |  | significant reduction in chemotaxis | significant reduction in chemotaxis
